Assay results published in US8247211B2, “Glycopeptide antibiotics” (American Cyanamid Company, priority 2001, dated 2012).

How the values were obtained:
Assay in all cases: In vitro antibacterial evaluation: minimum inhibitory concentration (MIC), broth dilution method
Assay type in all cases: cell-based
Enterococcus sp. = test system: Enterococcus sp.
Protocol: (§1) The minimum inhibitory concentration (MIC), the lowest concentration of the antibiotic which inhibits growth of the test organism, is determined by the broth dilution method using Muller-Hinton II […] (Baltimore Biological Laboratories) following the recommendations of the National Committee for Clinical Laboratory Standards [Methods for dilution antimicrobial susceptibility tests for bacteria that grow aerobically, approved standard M7-A2, National Committee for Clinical Laboratory Standards, Villanova, Pa].
(§2) An inoculum level of 5×10^5 CFU/mL, and a range of antibiotic concentrations (64-0.06 μg/mL) is used. […] The test organisms include a spectrum of Gram-positive bacteria comprised of Staphylococcus sp., Streptococcus sp. and Enterococcus sp. These organisms include recent clinical isolates that are resistant to methicillin, penicillin and/or vancomycin.

Staphylococcus sp. = settings: broth dilution, 18 hours at 35° C.
Protocol: as §1, §2

Streptococcus sp. = test system: Streptococcus sp.
Protocol: as §1, §2

Escherichia coli = test system: Escherichia coli
Protocol: as §1, §2

[1] = broth dilution, inoculum 5×10^5 CFU/mL, 18 hours at 35° C.

CC(=O)n1cc(C2OCC3OC(OC4C(CO)OC(Oc5ccc(CC6NC(=O)C(C(C)c7ccccc7)NC(=O)CNC(=O)C(CO)NC(=O)C(C(O)C7CNC(=N)N7C7OC(CO)C(O)C(O)C7O)NC(=O)C(C(O)C7CNC(=N)N7)NC6=O)cc5)C(O)C4O)C(O)C(O)C3O2)c2ccccc21 (stereo not drawn) [Example 161, Cyclo[glycyl-β-methylphenylalanyl-O-[4-O-[4,6-O-[1-(acetylindol-3-yl)methylene]hexopyranosyl]hexopyranosyl]tyrosyl-3-(2-iminoimidazolidin-4-yl)seryl-3-(3-hexopyranosyl-2-iminoimidazolidin-4-yl)serylseryl]]
2 µg/mL: MIC Coagulase Negative Staphylococcus (GC 4548) (Staphylococcus sp.; 5×10^5 CFU/mL) | MIC Coagulase Negative Staphylococcus (GC 4549) (Staphylococcus sp.; 5×10^5 CFU/mL) | MIC Coagulase Negative Staphylococcus (GC 6257) (Staphylococcus sp.; 5×10^5 CFU/mL) | MIC Coagulase Negative Staphylococcus (GC 4548) (Staphylococcus sp.; strain GC 4548) | MIC Coagulase Negative Staphylococcus (GC 4549) (Staphylococcus sp.; strain GC 4549) | MIC Coagulase Negative Staphylococcus (GC 6257) (Staphylococcus sp.; strain GC 6257) | MIC Escherichi coli (GC 4560) (Escherichia coli; strain GC 4560)
>64 µg/mL: MIC Escherichia coli (ATCC 25922) (Escherichia coli; strain ATCC 25922) | MIC Escherichia coli (GC 4559) (Escherichia coli; strain GC 4559)
4 µg/mL: MIC Coagulase Negative Staphylococcus (GC 4547) (Staphylococcus sp.; 5×10^5 CFU/mL) | MIC Staphylococcus aureus (ATCC 29213) (Staphylococcus sp.; 5×10^5 CFU/mL) | MIC Staphylococcus aureus (GC 4541) (Staphylococcus sp.; 5×10^5 CFU/mL) | MIC Staphylococcus aureus (GC 4542) (Staphylococcus sp.; 5×10^5 CFU/mL) | MIC Staphylococcus aureus (GC 4545) (Staphylococcus sp.; 5×10^5 CFU/mL) | MIC Staphylococcus aureus-SMITH (GC 4543) (Staphylococcus sp.; 5×10^5 CFU/mL) | MIC Staphylococcus haemolyticus (GC 4546) (Staphylococcus sp.; 5×10^5 CFU/mL) | MIC Staphylococcus aureus (ATCC 29213) (Staphylococcus sp.; strain ATCC 29213) | MIC Staphylococcus aureus (GC 4541) (Staphylococcus sp.; strain GC 4541) | MIC Staphylococcus aureus (GC 4542) (Staphylococcus sp.; strain GC 4542) | MIC Staphylococcus aureus-SMITH (GC 4543) (Staphylococcus sp.; strain GC 4543) | MIC Staphylococcus aureus (GC 4545) (Staphylococcus sp.; strain GC 4545) | MIC Staphylococcus haemolyticus (GC 4546) (Staphylococcus sp.; strain GC 4546) | MIC Coagulase Negative Staphylococcus (GC 4547) (Staphylococcus sp.; strain GC 4547)
1 µg/mL: MIC Streptococcus pyogenes (GC 4563) (Streptococcus sp.; strain GC 4563) | MIC Streptococcus agalactiae (GC 4564) (Streptococcus sp.; strain GC 4564)
8 µg/mL: MIC Enterococcus faecium (GC 4557) (Enterococcus sp.; [1]) | MIC Enterococcus faecium (GC 4557) (Enterococcus sp.; strain GC 4557) | MIC Coagulase Negative Staphylococcus (GC 4551) (Staphylococcus sp.; 5×10^5 CFU/mL) | MIC Staphylococcus aureus (GC 1131) (Staphylococcus sp.; 5×10^5 CFU/mL) | MIC Staphylococcus aureus (GC 3051) (Staphylococcus sp.; 5×10^5 CFU/mL) | MIC Staphylococcus aureus (GC 3053) (Staphylococcus sp.; 5×10^5 CFU/mL) | MIC Staphylococcus aureus (GC 4544) (Staphylococcus sp.; 5×10^5 CFU/mL) | MIC Staphylococcus aureus (GC 1131) (Staphylococcus sp.; strain GC 1131) | MIC Staphylococcus aureus (GC 3051) (Staphylococcus sp.; strain GC 3051) | MIC Staphylococcus aureus (GC 3053) (Staphylococcus sp.; strain GC 3053) | MIC Staphylococcus aureus (GC 4544) (Staphylococcus sp.; strain GC 4544) | MIC Coagulase Negative Staphylococcus (GC 4551) (Staphylococcus sp.; strain GC 4551)
0.5 µg/mL: MIC Streptococcus pneumoniae (ATCC 6301) (Streptococcus sp.; strain ATCC 6301) | MIC Streptococcus pneumoniae (GC 4565) (Streptococcus sp.; strain GC 4565)
0.12 µg/mL: MIC Streptococcus pneumoniae (GC 1894) (Streptococcus sp.; strain GC 1894)
16 µg/mL: MIC Enterococcus avium (GC 4558) (Enterococcus sp.; [1]) | MIC Enterococcus faecalis (ATCC 29212) (Enterococcus sp.; [1]) | MIC Enterococcus faecalis (GC 4552) (Enterococcus sp.; [1]) | MIC Enterococcus faecalis (GC 4553) (Enterococcus sp.; [1]) | MIC Enterococcus faecalis (GC 4554) (Enterococcus sp.; [1]) | MIC Enterococcus faecalis (GC 6189) (Enterococcus sp.; [1]) | MIC Enterococcus faecium (GC 2243) (Enterococcus sp.; [1]) | MIC Enterococcus faecium (GC 4556) (Enterococcus sp.; [1]) | MIC Enterococcus faecalis (ATCC 29212) (Enterococcus sp.; strain ATCC 29212) | MIC Enterococcus faecalis (GC 2242) (Enterococcus sp.; strain GC 2242) | MIC Enterococcus faecium (GC 2243) (Enterococcus sp.; strain GC 2243) | MIC Enterococcus faecalis (GC 2691) (Enterococcus sp.; strain GC 2691) | MIC Enterococcus faecalis (GC 3059) (Enterococcus sp.; strain GC 3059) | MIC Enterococcus faecalis (GC 4552) (Enterococcus sp.; strain GC 4552) | MIC Enterococcus faecalis (GC 4553) (Enterococcus sp.; strain GC 4553) | MIC Enterococcus faecalis (GC 4554) (Enterococcus sp.; strain GC 4554) | MIC Enterococcus faecium (GC 4556) (Enterococcus sp.; strain GC 4556) | MIC Enterococcus avium (GC 4558) (Enterococcus sp.; strain GC 4558) | MIC Enterococcus faecalis (GC 6189) (Enterococcus sp.; strain GC 6189)
